Test systems include Escherichia coli; Acinetobacter sp.; Enterobacter cloacae; Escherichia coli P4; Serratia marcescens; Pseudomonas aeruginosa; Klebsiella aerogenes; Klebsiella pneumoniae; Streptococcus mutans.
Holding throughout (test): ≥ marks a high value that may be exact or a test limit, other limits are often not marked, values filed in µg/mL are converted to µM
Experiment [1] concerns Pseudomonas aeruginosa ATCC 27853.
Experiment [2] relates to Pseudomonas aeruginosa ATCC 10145.
In experiment [3] the test system is Staphylococcus aureus NRS 1.
Experiment [4] deals with Pseudomonas aeruginosa 1109.
Experiment [5] concerns Pseudomonas aeruginosa ATCC 35032.
In experiment [6] the test system is Acinetobacter baumannii ATCC 19606.
The test system of experiment [7] is Staphylococcus aureus ATCC 43300.
For experiment [8], the system named is Staphylococcus aureus RN4220.
For experiment [9], the system named is Staphylococcus aureus USA 200.
Experiment [10] relates to Acinetobacter baumannii NR-13375.
For experiment [11], the system named is Staphylococcus aureus NRS 19.
Experiment [12] deals with Acinetobacter baumannii ATCC BAA-747.
Experiment [13] concerns Pseudomonas aeruginosa ATCC 9027.
In experiment [14] the test system is Acinetobacter baumannii ATCC BAA-1605.
Experiment [15] concerns Staphylococcus aureus USA 100.
Experiment [16] relates to Pseudomonas aeruginosa 16011.
The subject of experiment [17] is Pseudomonas aeruginosa ATCC BAA-1744.
Experiment [18] deals with Staphylococcus aureus USA 300.
Experiment [19] concerns Pseudomonas aeruginosa 1017.
Experiment [20] concerns Staphylococcus aureus ATCC 6538.
Experiment [21] has as its system Staphylococcus epidermidis NRS 101.
For experiment [22], the system named is Staphylococcus aureus ATCC BAA-44.
The subject of experiment [23] is Pseudomonas aeruginosa ATCC 9721.
The subject of experiment [24] is Pseudomonas aeruginosa 1125.
Experiment [25] has as its system Acinetobacter baumannii NR-9667.
In experiment [26] the test system is Staphylococcus aureus VRSA1.
The subject of experiment [27] is Pseudomonas aeruginosa ATCC 15442.
Experiment [28] has as its system Staphylococcus aureus NRS 72.
Experiment [29] deals with Pseudomonas aeruginosa ATCC 25619.
In experiment [30] the test system is Pseudomonas aeruginosa ATCC 25668.
Experiment [31] deals with Staphylococcus aureus ATCC 9144.
Experiment [32] relates to Bacillus subtilis ATCC 6633.
Experiment [33] concerns Escherichia coli ATCC 25922.
Experiment [34] deals with Staphylococcus aureus ATCC 29213.
Experiment [35] deals with Shigella dysenteriae CMCC 51302.
In experiment [36] the test system is Streptococcus pyogenes ATCC 12344.
Experiment [37] relates to Listeria monocytogenes CMCC 54002.
In experiment [38] the test system is Salmonella typhimurium CMCC 50013.
In experiment [39] the test system is Klebsiella pneumoniae ATCC 13883.
For experiment [40], the system named is Listeria monocytogenes ATCC 35152.
Experiment [41] has as its system Staphylococcus aureus ATCC 25923.

Converted amounts (≈) assume the structure as drawn.

By MIC is commonly meant the lowest concentration found to suppress growth. A higher MIC goes with a need for much substance.

`CC[C@H](C)[C@H](NC(=O)[C@H](CCCN=C(N)N)NC(=O)[C@H](CCCN=C(N)N)NC(=O)[C@H](CC(C)C)NC(=O)[C@H](Cc1c[nH]c2ccccc12)NC(=O)[C@H](C)NC(=O)[C@H](CCCCN)NC(=O)[C@@H](NC(=O)[C@H](CCCN=C(N)N)NC(=O)[C@H](CCCN=C(N)N)NC(=O)[C@H](CC(C)C)NC(=O)[C@@H](N)Cc1c[nH]c2ccccc12)[C@@H](C)CC)C(=O)N[C@@H](CCCCN)C(=O)N[C@@H](C)C(=O)O` [WLRRIKAWLRRIKA]: the MIC in experiment [1] was found to be 8 µM (≈ 14.9 µg/mL); in [2] it was 8 µM (≈ 14.9 µg/mL); in experiment [3], 2 µM (≈ 3.73 µg/mL); in experiment [4], 4 µM (≈ 7.47 µg/mL); in experiment [5], 8 µM (≈ 14.9 µg/mL); in [6] it was 2 µM (≈ 3.73 µg/mL). The MIC in [7] is 4 µM (≈ 7.47 µg/mL); in experiment [8], 4 µM (≈ 7.47 µg/mL); in [9], 4 µM (≈ 7.47 µg/mL); in experiment [10] it was 2 µM (≈ 3.73 µg/mL); in [11], 4 µM (≈ 7.47 µg/mL); in [12], 2 µM (≈ 3.73 µg/mL). Further, the MIC was 4 µM (≈ 7.47 µg/mL) in [13]; 2 µM (≈ 3.73 µg/mL) in experiment [14]; 2 µM (≈ 3.73 µg/mL) in experiment [15]; 16 µM (≈ 29.9 µg/mL) in experiment [16]; 8 µM (≈ 14.9 µg/mL) in experiment [17]; 4 µM (≈ 7.47 µg/mL) in experiment [18]. For the same molecule, the MIC in [19] was no less than 32 µM; in [20], 2 µM (≈ 3.73 µg/mL); in experiment [21], 2 µM (≈ 3.73 µg/mL); in experiment [22], 4 µM (≈ 7.47 µg/mL); in experiment [23] it was 8 µM (≈ 14.9 µg/mL); in [24], 8 µM (≈ 14.9 µg/mL). Besides, the minimum inhibitory concentration (MIC) was found to be 4 µM (≈ 7.47 µg/mL) in experiment [25]; 4 µM (≈ 7.47 µg/mL) in experiment [26]; 8 µM (≈ 14.9 µg/mL) in [27]; 4 µM (≈ 7.47 µg/mL) in experiment [28]; 8 µM (≈ 14.9 µg/mL) in experiment [29].

With `CC[C@H](C)[C@H](N)C(=O)N[C@@H](CCCCN)C(=O)N1CCC[C@H]1C(=O)N[C@@H](C)C(=O)NCC(=O)N[C@@H](CCCCN)C(=O)N[C@@H](CC(C)C)C(=O)N[C@@H](Cc1ccccc1)C(=O)N[C@@H](CCCCN)C(=O)N[C@@H](CC(C)C)C(=O)N[C@@H](Cc1ccccc1)C(=O)N[C@@H](CCCCN)C(N)=O` [IKPAGKLFKLFK], the MIC in [30] was no less than 368 µM; in experiment [31], no less than 368 µM; in experiment [32], no less than 368 µM; in the experiment with Escherichia coli it was 368 µM (≈ 512 µg/mL); in the experiment on Acinetobacter sp., no less than 46.1 µM.

For `CC[C@H](C)[C@H](NC(=O)[C@H](Cc1cnc[nH]1)NC(=O)[C@@H](NC(=O)[C@H](CCCN=C(N)N)NC(=O)[C@@H](N)C(C)C)[C@@H](C)CC)C(=O)N[C@@H](CO)C(=O)NCC(=O)N[C@@H](CO)C(=O)N[C@@H](CO)C(=O)N[C@@H](CC(C)C)C(=O)NCC(=O)N[C@@H](Cc1c[nH]c2ccccc12)C(=O)N[C@@H](CC(C)C)C(=O)N[C@H](C(=O)N[C@@H](CCC(N)=O)C(=O)N[C@@H](CC(C)C)C(=O)N[C@@H](Cc1ccccc1)C(=O)N[C@@H](CCCN=C(N)N)C(=O)N[C@@H](CCCCN)C(=O)N[C@@H](CCCN=C(N)N)C(=O)N[C@H](C(=O)N[C@@H](CCC(=O)O)C(=O)N[C@@H](CO)C(=O)N[C@@H](CC(C)C)C(=O)N[C@@H](CC(C)C)C(=O)N[C@@H](CCC(N)=O)C(=O)N[C@@H](CCCCN)C(=O)N[C@@H](CO)C(=O)O)[C@@H](C)CC)[C@@H](C)CC` [VRIHISGSSLGWLIQLFRKRIESLLQKS], the MIC in experiment [33] was 55.4 µM (≈ 181 µg/mL); in experiment [34], 55.4 µM (≈ 181 µg/mL); against Enterobacter cloacae, no less than 78.4 µM; in the experiment on Escherichia coli P4, no less than 55.4 µM; with Escherichia coli, 78.4 µM (≈ 256 µg/mL); against Serratia marcescens, no less than 157 µM. In addition, the minimal inhibitory concentration (MIC) in the experiment on Pseudomonas aeruginosa is greater than 78.4 µM; in the experiment with Klebsiella aerogenes, no less than 78.4 µM; in the experiment on Klebsiella pneumoniae, greater than 78.4 µM.

For the molecule `CC(C)C[C@H](NC(=O)CN)C(=O)N[C@@H](Cc1ccccc1)C(=O)N[C@@H](CCCN=C(N)N)C(=O)N[C@@H](C)C(=O)N[C@@H](CC(C)C)C(=O)N[C@@H](CC(C)C)C(=O)N[C@@H](CCCN=C(N)N)C(=O)N[C@@H](CC(C)C)C(=O)N[C@@H](CC(C)C)C(=O)N[C@@H](CCCN=C(N)N)C(=O)N[C@@H](CO)C(=O)N[C@@H](CC(C)C)C(=O)N[C@@H](Cc1c[nH]c2ccccc12)C(=O)N[C@@H](CCCN=C(N)N)C(=O)N[C@@H](CC(C)C)C(=O)N[C@@H](CC(C)C)C(=O)N[C@@H](CC(C)C)C(=O)N[C@@H](CCCN=C(N)N)C(=O)N[C@@H](C)C(=O)O` [GLFRALLRLLRSLWRLLLRA], the MIC in experiment [33] was greater than 64 µM; in experiment [35] it was no less than 64 µM; in [34], greater than 64 µM; in experiment [36], no less than 64 µM; in experiment [37], no less than 64 µM; against Streptococcus mutans, no less than 64 µM. Besides, the MIC in experiment [38] was no less than 64 µM.

Take `CC(C)C[C@H](NC(=O)[C@H](CCCN=C(N)N)NC(=O)[C@H](CCCCN)NC(=O)[C@@H](N)Cc1c[nH]c2ccccc12)C(=O)N[C@H](C(=O)N[C@@H](C)C(=O)N[C@@H](C)C(=O)N[C@@H](CO)C(=O)N[C@@H](C)C(=O)N[C@@H](CCCCN)C(=O)N[C@@H](CCCCN)C(=O)N[C@@H](CCCCN)C(N)=O)C(C)C` [WKRLVAASAKKK]: the minimum inhibitory concentration (MIC) in experiment [1] came out at 14.4 µM (≈ 20 µg/mL); in experiment [39] it was 18 µM (≈ 25 µg/mL); in experiment [33] it was 10.8 µM (≈ 15 µg/mL); in [40], 10.8 µM (≈ 15 µg/mL); in experiment [41], 7.22 µM (≈ 9.99 µg/mL).

The values above are taken from DBAASP.
